The values that follow come from BindingDB's records for doi:10.1038/nchembio.2007.16 (Eisai Co., Ltd, 2007).

pEC50: −log10 of the molar value. Where “and” joins values, the source holds several entries; their conditions need not be identical. Equal values may be shown once.

Assay [1] deals with Splicing factor 3B subunit 1 / PHD finger-like domain-containing protein 5A (Homo sapiens, UniProt O75533+Q7RTV0). In words: VEGF-PLAP. Particulars: pH 7.8; 4 °C. The text has this:
Placental alkaline phosphatase (PLAP) reporter assay controlled by VEGF promoter (VEGF-PLAP)

In assay [2] the target is T1, Splicing factor 3B subunit 3 (Homo sapiens, UniProt Q15393).
T1 sequence (Q15393 whole entry): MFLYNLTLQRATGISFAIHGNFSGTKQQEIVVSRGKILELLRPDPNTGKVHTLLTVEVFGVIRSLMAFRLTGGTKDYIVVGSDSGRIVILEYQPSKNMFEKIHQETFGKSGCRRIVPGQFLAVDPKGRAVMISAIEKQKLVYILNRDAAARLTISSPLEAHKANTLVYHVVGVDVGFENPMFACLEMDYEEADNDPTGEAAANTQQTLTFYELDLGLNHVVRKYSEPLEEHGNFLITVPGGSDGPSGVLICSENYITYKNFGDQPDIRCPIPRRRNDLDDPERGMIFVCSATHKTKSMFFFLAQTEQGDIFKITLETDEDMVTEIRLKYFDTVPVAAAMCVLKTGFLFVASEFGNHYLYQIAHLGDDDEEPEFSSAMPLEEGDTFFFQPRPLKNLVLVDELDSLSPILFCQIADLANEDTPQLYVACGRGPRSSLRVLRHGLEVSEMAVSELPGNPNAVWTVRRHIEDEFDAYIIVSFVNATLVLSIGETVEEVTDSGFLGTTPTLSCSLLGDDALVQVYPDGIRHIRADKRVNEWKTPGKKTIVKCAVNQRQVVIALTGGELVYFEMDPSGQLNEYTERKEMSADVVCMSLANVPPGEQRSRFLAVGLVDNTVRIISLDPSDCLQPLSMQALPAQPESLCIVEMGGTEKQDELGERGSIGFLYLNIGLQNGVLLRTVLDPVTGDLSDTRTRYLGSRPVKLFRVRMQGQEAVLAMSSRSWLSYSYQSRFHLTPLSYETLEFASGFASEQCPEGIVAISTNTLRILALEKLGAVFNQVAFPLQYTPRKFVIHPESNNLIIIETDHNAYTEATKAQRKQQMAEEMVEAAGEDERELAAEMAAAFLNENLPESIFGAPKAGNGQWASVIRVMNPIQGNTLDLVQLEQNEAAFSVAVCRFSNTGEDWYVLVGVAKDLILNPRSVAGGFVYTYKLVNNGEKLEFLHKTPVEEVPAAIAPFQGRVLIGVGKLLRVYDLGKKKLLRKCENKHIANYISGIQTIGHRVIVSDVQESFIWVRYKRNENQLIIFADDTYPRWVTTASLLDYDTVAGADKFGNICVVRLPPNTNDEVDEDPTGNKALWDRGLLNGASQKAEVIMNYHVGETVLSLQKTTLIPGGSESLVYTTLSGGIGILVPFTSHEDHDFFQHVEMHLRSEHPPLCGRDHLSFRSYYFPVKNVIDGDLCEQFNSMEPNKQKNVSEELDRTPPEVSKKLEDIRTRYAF
In words: WiDr. The conditions noted are these: pH 7.8; 4 °C. The source says:
Cell proliferation assay using WiDr

Chain of Splicing factor 3B subunit 1 / PHD finger-like domain-containing protein 5A (O75533 whole entry, the tested form may be a part): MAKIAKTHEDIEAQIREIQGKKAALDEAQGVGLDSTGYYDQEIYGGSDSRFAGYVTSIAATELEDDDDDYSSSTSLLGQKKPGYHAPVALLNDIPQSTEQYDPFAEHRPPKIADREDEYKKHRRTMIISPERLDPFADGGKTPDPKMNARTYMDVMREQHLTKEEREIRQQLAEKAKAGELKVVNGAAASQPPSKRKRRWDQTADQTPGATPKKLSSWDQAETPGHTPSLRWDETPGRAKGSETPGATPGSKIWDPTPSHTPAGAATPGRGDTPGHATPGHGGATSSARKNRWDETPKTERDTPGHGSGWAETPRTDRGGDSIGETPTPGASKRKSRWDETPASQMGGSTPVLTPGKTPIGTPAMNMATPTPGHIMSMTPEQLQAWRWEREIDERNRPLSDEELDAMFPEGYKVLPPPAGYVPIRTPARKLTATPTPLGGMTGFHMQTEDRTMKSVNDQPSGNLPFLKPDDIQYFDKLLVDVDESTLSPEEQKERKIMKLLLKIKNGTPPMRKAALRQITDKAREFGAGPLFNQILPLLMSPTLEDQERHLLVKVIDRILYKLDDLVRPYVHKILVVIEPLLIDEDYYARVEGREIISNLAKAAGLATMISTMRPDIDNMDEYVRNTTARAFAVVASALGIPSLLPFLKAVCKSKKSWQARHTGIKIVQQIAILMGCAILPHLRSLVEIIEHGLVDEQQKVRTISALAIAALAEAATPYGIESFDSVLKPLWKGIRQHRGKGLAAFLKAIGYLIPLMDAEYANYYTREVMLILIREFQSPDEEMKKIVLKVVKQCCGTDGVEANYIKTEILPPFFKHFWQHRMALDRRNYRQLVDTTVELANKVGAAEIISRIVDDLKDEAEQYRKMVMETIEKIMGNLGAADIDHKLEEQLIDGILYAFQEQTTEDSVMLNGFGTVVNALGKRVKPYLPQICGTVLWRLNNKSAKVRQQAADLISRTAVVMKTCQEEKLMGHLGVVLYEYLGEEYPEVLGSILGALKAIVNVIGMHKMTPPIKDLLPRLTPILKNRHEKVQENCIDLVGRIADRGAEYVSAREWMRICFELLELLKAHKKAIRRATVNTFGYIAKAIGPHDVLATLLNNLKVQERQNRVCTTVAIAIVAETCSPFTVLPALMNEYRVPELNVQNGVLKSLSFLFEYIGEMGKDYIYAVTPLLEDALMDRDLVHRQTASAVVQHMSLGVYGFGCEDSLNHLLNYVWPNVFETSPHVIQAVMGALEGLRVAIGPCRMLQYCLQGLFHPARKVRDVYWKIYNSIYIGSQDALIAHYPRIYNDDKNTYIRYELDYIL
Chain of Splicing factor 3B subunit 1 / PHD finger-like domain-containing protein 5A (Q7RTV0 2-110 limits assumed): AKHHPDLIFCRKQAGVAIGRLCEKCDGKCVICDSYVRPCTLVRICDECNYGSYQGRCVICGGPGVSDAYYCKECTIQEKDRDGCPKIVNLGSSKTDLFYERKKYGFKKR

As usually defined, the pEC50 is −log10 of the EC50, conventionally taken in molar units. A lower pEC50 goes with a high EC50. Regarding `CC[C@H](O)[C@@H](C)[C@H]1O[C@@H]1C[C@@](C)(O)/C=C/C=C(\C)[C@H]1OC(=O)C[C@H](O)CC[C@@](C)(O)[C@@H](OC(C)=O)/C=C/[C@@H]1C` [(3R,6R,7S,8E,10S,11S,12E,14E,16R,18R,19R,20R,21S)-7-acetoxy-3,6,16,21-tetrahydroxy-6,10,12,16,20-pentamethyl-18,19-epoxytricosa-8,12,14-triene-11-olide], the values for the pEC50 in assay [1] and in assay [2] were 8.37 and 8.22, respectively. `CC[C@H](O)[C@@H](C)[C@H]1O[C@@H]1C[C@H](C)/C=C/C=C(\C)[C@H]1OC(=O)C[C@H](O)CC[C@@](C)(O)[C@@H](OC(=O)NCCCC[C@H](NC(=O)c2ccc(C3(C(F)(F)F)N=N3)cc2)C(=O)N(C)CCN(C)C(=O)CCCC[C@H]2SC[C@H]3NC(=O)N[C@H]32)/C=C/[C@@H]1C` [CID1620213] had a pEC50 in assay [2] of 6.23. `CCNC(=O)O[C@H]1/C=C/[C@H](C)[C@@H](/C(C)=C/C=C/[C@@H](C)C[C@H]2O[C@@H]2[C@H](C)[C@@H](O)CC)OC(=O)C[C@H](O)CC[C@@]1(C)O` [CID16202133]: the pEC50 in assay [1] was 8.31; in assay [2] it was 8.21. For `CC[C@H](O)[C@@H](C)[C@H]1O[C@@H]1C[C@H](C)/C=C/C=C(\C)[C@H]1OC(=O)C[C@H](O)CC[C@@](C)(O)[C@@H](OC(=O)NCCOCCOCCNC(=O)CCCCC2=[N+]3C(=Cc4c(C)cc(C)n4[B-]3(F)F)C=C2)/C=C/[C@@H]1C` [CID16202134], the pEC50 in assay [1] was 7.11 and 6.19; in assay [2], 7.15.
